# Source: BindingDB's records for doi:10.1016/0024-3205(84)90540-x (Schering-Plough, 1984)
# Counter-ions that a name gives are not always drawn.
# How the values were obtained:
# D(1A) dopamine receptor = D(1A) dopamine receptor (Rattus norvegicus, UniProt P18901)
# D(2) dopamine receptor = D(2) dopamine receptor (Rattus norvegicus, UniProt P61169)
# D(2) dopamine receptor, sequence (P61169 whole entry): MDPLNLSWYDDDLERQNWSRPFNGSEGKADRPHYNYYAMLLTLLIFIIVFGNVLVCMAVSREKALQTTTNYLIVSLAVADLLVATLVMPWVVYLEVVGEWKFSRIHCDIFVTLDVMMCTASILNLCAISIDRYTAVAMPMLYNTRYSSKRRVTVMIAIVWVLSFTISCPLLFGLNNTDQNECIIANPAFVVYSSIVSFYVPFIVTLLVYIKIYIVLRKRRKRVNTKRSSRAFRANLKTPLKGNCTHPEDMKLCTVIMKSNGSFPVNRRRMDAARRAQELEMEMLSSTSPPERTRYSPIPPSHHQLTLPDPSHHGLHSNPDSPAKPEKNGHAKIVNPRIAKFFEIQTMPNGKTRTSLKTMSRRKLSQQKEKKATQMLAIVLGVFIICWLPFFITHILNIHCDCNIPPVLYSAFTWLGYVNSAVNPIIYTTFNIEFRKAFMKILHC
# D(1A) dopamine receptor, sequence (P18901 whole entry): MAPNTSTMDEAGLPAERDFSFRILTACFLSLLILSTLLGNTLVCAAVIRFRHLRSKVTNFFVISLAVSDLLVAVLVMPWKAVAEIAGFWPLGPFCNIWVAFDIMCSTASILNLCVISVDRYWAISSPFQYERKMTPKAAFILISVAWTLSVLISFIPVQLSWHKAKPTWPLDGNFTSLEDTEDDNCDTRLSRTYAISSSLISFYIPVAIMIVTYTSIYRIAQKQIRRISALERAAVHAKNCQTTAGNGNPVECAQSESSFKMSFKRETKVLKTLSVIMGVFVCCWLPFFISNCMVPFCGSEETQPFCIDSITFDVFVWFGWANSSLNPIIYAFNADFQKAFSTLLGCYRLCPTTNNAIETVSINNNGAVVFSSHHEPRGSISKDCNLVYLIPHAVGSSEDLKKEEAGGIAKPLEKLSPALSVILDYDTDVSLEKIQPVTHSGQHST
Structure (SMILES),Ki (D(1A) dopamine receptor) [nM],Ki (D(2) dopamine receptor) [nM]
CC[C@@H](CO)NC(=O)[C@@H]1C=C2c3cccc4c3c(cn4C)C[C@H]2N(C)C1,217,116
OCCN1CCN(CCCN2c3ccccc3Sc3ccc(C(F)(F)F)cc32)CC1 [2-[4-[3-[2-(trifluoromethyl)phenothiazin-10-yl]propyl]piperazin-1-yl]ethanol;hydrochloride],11.2,–
"O=C(c1ccc(F)cc1)C1CCN(CCn2c(=O)[nH]c3ccccc3c2=O)CC1 [3-(2-{4-[(4-fluorophenyl)carbonyl]piperidin-1-yl}ethyl)-1,2,3,4-tetrahydroquinazoline-2,4-dione]",1010,397
"CN1C2CC(OC(=O)C(CO)c3ccccc3)CC1C1OC12 (stereo unspecified) [3-hydroxy-2-phenyl-propionic acid 9-methyl-3-oxa-9-aza-tricyclo[3.3.1.0*2,4*]non-7-yl ester]",> 10000,> 10000
OCCN1CCN(CCCN2c3ccccc3Sc3ccc(Cl)cc32)CC1 [4-[3-(2-chlorophenothiazin-10-yl)propyl]-1-piperazineethanol],29.9,1.3
"NCCCC(=O)O [4-amino-n-[2,3-3H]butyric acid]",> 10000,> 10000
OCCC1CCN(CCC=C2c3ccc(F)cc3Sc3ccc(C(F)(F)F)cc32)CC1 [CAS_60197-32-2],2.9,1
N[C@@H](CCC(=O)O)C(=O)O [L-Glutamic acid],> 10000,> 10000
"NCC(O)c1ccc(O)c(O)c1 (stereo not drawn) [Noradrenaline,(+)]",> 10000,> 10000
NCCc1c[nH]cn1 [[3H]histamine],> 10000,> 10000
OCCC1CCN(CC/C=C2\c3ccc(F)cc3Sc3ccc(C(F)(F)F)cc32)CC1 [trans piflutixol-(E)],95,73
